Values quoted from earlier work in patent US20220378880A1, “PHARMACEUTICAL COMPOSITIONS OF GHRH ANALOGS AND USES THEREOF” (Theratechnologies Inc., priority 2019, published 2022).

[1] = healthy subjects, single SC 2 mg dose

Absolute bioavailability (healthy adult subjects, SC 2 mg dose): less than 4% | Extent of absorption, mean (CV) [1]: 634.6 (72.4) pg·h/mL | Peak tesamorelin concentration (Cmax), mean (CV) [1]: 2874.6 (43.9) pg/mL | Thalf (expected) (single SC 2 mg dose): 0.4 h | Tmax (expected) (single SC 2 mg dose, median): 9 min
SMILES: CC/C=C/CC(=O)N[C@@H](Cc1ccc(O)cc1)C(=O)N[C@@H](C)C(=O)N[C@@H](CC(=O)O)C(=O)N[C@@H](C)C(=O)N[C@H](C(=O)N[C@@H](Cc1ccccc1)C(=O)N[C@H](C(=O)N[C@@H](CC(N)=O)C(=O)N[C@@H](CO)C(=O)N[C@@H](Cc1ccc(O)cc1)C(=O)N[C@@H](CCCNC(=N)N)C(=O)N[C@@H](CCCCN)C(=O)N[C@H](C(=O)N[C@@H](CC(C)C)C(=O)NCC(=O)N[C@@H](CCC(N)=O)C(=O)N[C@@H](CC(C)C)C(=O)N[C@@H](CO)C(=O)N[C@@H](C)C(=O)N[C@@H](CCCNC(=N)N)C(=O)N[C@@H](CCCCN)C(=O)N[C@@H](CC(C)C)C(=O)N[C@@H](CC(C)C)C(=O)N[C@@H](CCC(N)=O)C(=O)N[C@@H](CC(=O)O)C(=O)N[C@H](C(=O)N[C@@H](CCSC)C(=O)N[C@@H](CO)C(=O)N[C@@H](CCCNC(=N)N)C(=O)N[C@@H](CCC(N)=O)C(=O)N[C@@H](CCC(N)=O)C(=O)NCC(=O)N[C@@H](CCC(=O)O)C(=O)N[C@@H](CO)C(=O)N[C@@H](CC(N)=O)C(=O)N[C@@H](CCC(N)=O)C(=O)N[C@@H](CCC(=O)O)C(=O)N[C@@H](CCCNC(=N)N)C(=O)NCC(=O)N[C@@H](C)C(=O)N[C@@H](CCCNC(=N)N)C(=O)N[C@@H](C)C(=O)N[C@@H](CCCNC(=N)N)C(=O)N[C@@H](CC(C)C)C(N)=O)[C@@H](C)CC)C(C)C)[C@@H](C)O)[C@@H](C)CC [tesamorelin, trans-3-hexenoyl-GHRH(1-44)-NH2]
